Where “and” joins values, the source holds several entries; their conditions need not be identical. Equal values may be shown once.
How the values were obtained:
Assay type in all cases: cell-based, human
[1] = test system: fibroblasts from patients with Very-long-chain acyl-CoA dehydrogenase (VLCAD) deficiency, severe cardiac form; assay: Propionylcarnitine from oxidation of odd-carbon fatty acids in VLCAD (cardiac) fibroblasts; settings: VLCAD cardiac fibroblasts, one line per patient, 72 hours incubation
Description: (§1) Fibroblasts obtained from patients with inherited defects of mitochondrial fat oxidation were cultured in the presence of omega deuterated odd-carbon numbered fatty acids, as described in Roe, C. R., Sweetman, L., Roe, D. S., David, F., Brunengraber, H., “Effective Dietary Treatment of Cardiomyopathy & Rhabdomyolysis in Long-Chain Fat Oxidation Disorders using an Anaplerotic Odd-Chain Triglyceride,” J. Clin. Invest. 110 (2): 259-269 (2002).
(§2) The data in Table 1 represents testing of cultured fibroblasts derived from ten patients afflicted with Very-long-chain acyl-CoA dehydrogenase (VLCAD) deficiency (six patients with the severe cardiac form and four with the non-cardiac milder phenotype), two patients with Mitochondrial Trifunctional Protein (MTP) deficiency, five patients having L-3-hydroxy-acyl-CoA dehydrogenase (LCHAD) deficiency and three patients with Short-chain acyl-CoA dehydrogenase (SCAD) deficiency.

[2] = test system: fibroblasts from patients with VLCAD deficiency, non-cardiac milder phenotype; assay: Propionylcarnitine from oxidation of odd-carbon fatty acids in VLCAD (non-cardiac) fibroblasts; settings: VLCAD non-cardiac fibroblasts, one line per patient, 72 hours incubation
Description: as §1, §2

[3] = test system: fibroblasts from patients with Mitochondrial Trifunctional Protein (MTP) deficiency; assay: Propionylcarnitine from oxidation of odd-carbon fatty acids in MTP fibroblasts; settings: MTP fibroblasts, one line per patient, 72 hours incubation
Description: as §1, §2

[4] = test system: fibroblasts from patients with L-3-hydroxy-acyl-CoA dehydrogenase (LCHAD) deficiency; assay: Propionylcarnitine from oxidation of odd-carbon fatty acids in LCHAD fibroblasts; settings: LCHAD fibroblasts, one line per patient, 72 hours incubation
Description: as §1, §2

[5] = test system: fibroblasts from patients with Short-chain acyl-CoA dehydrogenase (SCAD) deficiency; assay: Propionylcarnitine from oxidation of odd-carbon fatty acids in SCAD fibroblasts; settings: SCAD fibroblasts, one line per patient, 72 hours incubation
Description: as §1, §2

[6] = test system: MCAD-deficient fibroblasts; assay: Fate of odd-carbon fatty acids in MCAD-deficient fibroblasts; design: *C3 acylcarnitine / *C5 acylcarnitine / *C7 acylcarnitine / *C9 acylcarnitine / *C11 acylcarnitine / *C13 acylcarnitine / *C15 acylcarnitine: unit not given here; settings: for *C3 acylcarnitine / *C5 acylcarnitine / *C7 acylcarnitine / *C9 acylcarnitine / *C11 acylcarnitine / *C13 acylcarnitine / *C15 acylcarnitine: MCAD fibroblasts, N 4
Description: as §1
Fibroblasts from four patients with MCAD deficiency and one heterozygote (carrier) indicate that odd-carbon fatty acids containing more than seven carbons can not be effectively used in that disease. […]

[7] = test system: fibroblasts from MCAD heterozygote (carrier); assay: Fate of odd-carbon fatty acids in MCAD carrier fibroblasts; design: unit not given here
Description: as §1
Fibroblasts from four patients with MCAD deficiency and one heterozygote (carrier) indicate that odd-carbon fatty acids containing more than seven carbons can not be effectively used in that disease. […] That any C3 was produced is presumably due to overlapping

[8] = test system: control / normal fibroblasts; assay: Fate of odd-carbon fatty acids in control (normal) fibroblasts; design: *C3 acylcarnitine / *C5 acylcarnitine / *C7 acylcarnitine / *C9 acylcarnitine / *C11 acylcarnitine / *C13 acylcarnitine / *C15 acylcarnitine: unit not given here
Description: Fibroblasts obtained from patients with inherited defects of mitochondrial fat oxidation were cultured in the presence of omega deuterated odd-carbon numbered fatty acids, as described in Roe, C. R., Sweetman, L., Roe, D. S., David, F., Brunengraber, H., “Effective Dietary Treatment of Cardiomyopathy & Rhabdomyolysis in Long-Chain Fat Oxidation Disorders using an Anaplerotic Odd-Chain Triglyceride,” J. Clin. Invest. 110 (2): 259-269 (2002). […]

[9] = test system: fibroblasts from patients with inherited defects of mitochondrial fat oxidation; assay: Propionylcarnitine production in all fat-oxidation-defective fibroblast cell lines (comparison in words); settings: all VLCAD, MTP, LCHAD, SCAD cell lines; C5 versus C7; C15 versus C5 or C7
Description: as §1, §2

## CCCCCCCCCCCCCCC(=O)O [C15, n-pentadecanoic acid]
[1]
  Propionylcarnitine from oxidation of fatty acid: 11.7 nmol/mg Protein/72 hours and 5.3 nmol/mg Protein/72 hours and 21.6 nmol/mg Protein/72 hours and 8.0 nmol/mg Protein/72 hours and 6.6 nmol/mg Protein/72 hours and 9.9 nmol/mg Protein/72 hours
[2]
  Propionylcarnitine from oxidation of fatty acid: 16.4 nmol/mg Protein/72 hours and 19.2 nmol/mg Protein/72 hours and 36.0 nmol/mg Protein/72 hours and 11.5 nmol/mg Protein/72 hours
[3]
  Propionylcarnitine from oxidation of fatty acid: 31.4 nmol/mg Protein/72 hours and 46.5 nmol/mg Protein/72 hours
[4]
  Propionylcarnitine from oxidation of fatty acid: 34.6 nmol/mg Protein/72 hours and 15.1 nmol/mg Protein/72 hours and 15.9 nmol/mg Protein/72 hours and 6.9 nmol/mg Protein/72 hours and 13.9 nmol/mg Protein/72 hours
[5]
  Propionylcarnitine from oxidation of fatty acid: 56.7 nmol/mg Protein/72 hours and 30.3 nmol/mg Protein/72 hours and 37.6 nmol/mg Protein/72 hours
[6]; Maximum
  *C3 acylcarnitine: 19.6
  *C5 acylcarnitine: 1.6
  *C7 acylcarnitine: 9.9
  *C9 acylcarnitine: 17.5
  *C11 acylcarnitine: 1.0
  *C13 acylcarnitine: 0.9
  *C15 acylcarnitine: 4.7
[6]; Mean
  *C3 acylcarnitine: 9.8
  *C5 acylcarnitine: 1.2
  *C7 acylcarnitine: 6.5
  *C9 acylcarnitine: 10.9
  *C11 acylcarnitine: 0.7
  *C13 acylcarnitine: 0.4
  *C15 acylcarnitine: 2.6
[6]; Minimum
  *C3 acylcarnitine: 3.1
  *C5 acylcarnitine: 0.5
  *C7 acylcarnitine: 3.5
  *C9 acylcarnitine: 4.3
  *C11 acylcarnitine: 0.3
  *C13 acylcarnitine: 0.0
  *C15 acylcarnitine: 1.0
[6]; MCAD-1 fibroblast cell line
  Propionylcarnitine from odd carbon precursor: 6.9 nmol/mg Protein/72 hours
[6]; MCAD-2 fibroblast cell line
  Propionylcarnitine from odd carbon precursor: 19.6 nmol/mg Protein/72 hours
[6]; four MCAD patients' fibroblasts
  Oxidation of the fatty acid in MCAD deficient fibroblasts (in words): a block in oxidation at C9 & C7
[7]
  *C3 acylcarnitine: 33.5
  *C5 acylcarnitine: 1.7
  *C7 acylcarnitine: 0.6
  *C9 acylcarnitine: 1.7
  *C11 acylcarnitine: 0.5
  *C13 acylcarnitine: 0.2
  *C15 acylcarnitine: 1.9
[8]; CONTROL MEAN, N = 4
  *C3 acylcarnitine: 46.8
  *C5 acylcarnitine: 2.8
  *C7 acylcarnitine: 0.8
  *C9 acylcarnitine: 2.2
  *C11 acylcarnitine: 0.9
  *C13 acylcarnitine: 0.7
  *C15 acylcarnitine: 3.8
[8]; NORMAL fibroblasts
  Propionylcarnitine from odd carbon precursor: 46.8 nmol/mg Protein/72 hours
[8]; normal cells, compared with C7 or C5
  Boosting the production of propionyl-CoA (in words): more effective in normal cells
[9]
  Quantity of propionylcarnitine produced, compared with the other odd-carbon fatty acids: less propionylcamitine
